The text below walks through data of ChEMBL document CHEMBL1833893, “Synthesis and anticonvulsant activity of new 1-[2-oxo-2-(4-phenylpiperazin-1-yl)ethyl]pyrrolidine-2,5-diones” (Bioorg Med Chem Lett, 2011).

The subject of data set [1] is Mus musculus. The experiment in a line: Anticonvulsant activity in ip dosed albino CF1 mouse assessed as protection against maximal electroshock-induced seizures after 0.25 hrs. The class given is functional. To be noted: read-out: MED. For orientation: In the maximal electroshock model the usual endpoint is tonic extension of the hind limbs.
Data set [2] relates to Mus musculus. The experiment in a line: Anticonvulsant activity in albino CF1 mouse assessed as protection against subcutaneous pentylenetetrazole-induced seizures at 300 mg/kg, ip after 4 hrs. The class given is functional, organism-based. Also noted: dose 300 mg/kg.
The test system of data set [3] is Mus musculus. The experiment in a line: Anticonvulsant activity in albino CF1 mouse assessed as protection against maximal electroshock-induced seizures at 300 mg/kg, ip after 4 hrs. Also noted: dose 300 mg/kg. The class given is functional, organism-based.
For data set [4], the system named is Mus musculus. The experiment in a line: Anticonvulsant activity in albino CF1 mouse assessed as protection against subcutaneous pentylenetetrazole-induced seizures at 300 mg/kg, ip after 0.5 hrs. The class given is functional, organism-based. Also noted: dose 300 mg/kg.
Data set [5] relates to Mus musculus. The experiment in a line: Neurotoxicity in albino CF1 mouse assessed as motor impairment at 300 mg/kg, ip after 0.5 hrs by rotarod test. The class given is toxicity, organism-based. Also noted: dose 300 mg/kg, route intraperitoneal. To be noted: in vivo. A general note: In the rotarod test animals must keep their balance on a rotating rod.
In data set [6] the test system is Mus musculus. The experiment in a line: Anticonvulsant activity in ip dosed albino CF1 mouse assessed as protection against maximal electroshock-induced seizures after 0.5 hrs. The class given is functional. To be noted: read-out: MED.
Data set [7] relates to Mus musculus. The experiment in a line: Neurotoxicity in albino CF1 mouse assessed as motor impairment at 300 mg/kg, ip after 4 hrs by rotarod test. The class given is toxicity, organism-based. Also noted: dose 300 mg/kg, route intraperitoneal. To be noted: in vivo.
Data set [8] concerns Mus musculus. The experiment in a line: Anticonvulsant activity in albino CF1 mouse assessed as protection against maximal electroshock-induced seizures at 300 mg/kg, ip after 0.5 hrs. The class given is functional, organism-based. Also noted: dose 300 mg/kg.
The subject of data set [9] is Mus musculus. The experiment in a line: Anticonvulsant activity in ip dosed albino CF1 mouse assessed as protection against subcutaneous pentylenetetrazole-induced seizures after 4 hrs. The class given is functional. To be noted: albino CF1, 4 h, read-out: MED.
Data set [10] has as its system Mus musculus. The experiment in a line: Anticonvulsant activity in ip dosed albino CF1 mouse assessed as protection against subcutaneous pentylenetetrazole-induced seizures after 0.5 hrs. The class given is functional. To be noted: albino CF1, 0.5 h, read-out: MED.
The subject of data set [11] is Mus musculus. The experiment in a line: Anticonvulsant activity in ip dosed albino CF1 mouse assessed as protection against maximal electroshock-induced seizures after 4 hrs. The class given is functional. To be noted: read-out: MED.
For data set [12], the system named is Rattus norvegicus. The experiment in a line: Anticonvulsant activity in Sprague-Dawley rat assessed as protection against maximal electroshock-induced seizures at 30 mg/kg, po after 0.5 hrs. The data set is classed as functional.
Data set [13] relates to Rattus norvegicus. The experiment in a line: Anticonvulsant activity in Sprague-Dawley rat assessed as protection against maximal electroshock-induced seizures at 30 mg/kg, po after 1 hr. The data set is classed as functional.
For data set [14], the system named is Mus musculus. The experiment in a line: Anticonvulsant activity in albino CF1 mouse assessed as protection against electrically-induced seizure at 100 mg/kg, ip after 0.5 hrs by 6Hz psychomotor seizure test. The data set is classed as functional.
Data set [15] relates to Mus musculus. The experiment in a line: Anticonvulsant activity in albino CF1 mouse assessed as protection against electrically-induced seizure at 100 mg/kg, ip after 1 hr by 6Hz psychomotor seizure test. The data set is classed as functional.
The test system of data set [16] is Mus musculus. The experiment in a line: Neurotoxicity in ip dosed albino CF1 mouse assessed as minimum dose required to cause motor impairment after 4 hrs by rotarod test. The data set is classed as toxicity, organism-based. To be noted: in vivo.
Data set [17] deals with Rattus norvegicus. The experiment in a line: Anticonvulsant activity in Sprague-Dawley rat assessed as protection against maximal electroshock-induced seizures at 30 mg/kg, po after 0.25 hrs. The data set is classed as functional.
Data set [18] concerns Mus musculus. The experiment in a line: Anticonvulsant activity in albino CF1 mouse assessed as protection against electrically-induced seizure at 100 mg/kg, ip after 0.25 hrs by 6Hz psychomotor seizure test. The data set is classed as functional.
In data set [19] the test system is Mus musculus. The experiment in a line: Anticonvulsant activity in albino CF1 mouse assessed as protection against electrically-induced seizure at 100 mg/kg, ip after 2 hrs by 6Hz psychomotor seizure test. The class given is functional.
Data set [20] has as its system Mus musculus. The experiment in a line: Anticonvulsant activity in albino CF1 mouse assessed as protection against electrically-induced seizure at 100 mg/kg, ip after 4 hrs by 6Hz psychomotor seizure test. The data set is classed as functional.
Data set [21] has as its system Mus musculus. The experiment in a line: Neurotoxicity in ip dosed albino CF1 mouse assessed as minimum dose required to cause motor impairment after 0.5 hrs by rotarod test. The class given is toxicity, organism-based. To be noted: in vivo.
For data set [22], the system named is Rattus norvegicus. The experiment in a line: Anticonvulsant activity in Sprague-Dawley rat assessed as protection against maximal electroshock-induced seizures at 30 mg/kg, po after 4 hrs. The class given is functional.
The subject of data set [23] is Rattus norvegicus. The experiment in a line: Anticonvulsant activity in Sprague-Dawley rat assessed as protection against maximal electroshock-induced seizures at 30 mg/kg, po after 2 hrs. The class given is functional.

Structures are written as SMILES. The source made the active and inactive calls. The calls are words filed in the database; no cut-off is given here.

For the compound `CC1(C)CC(=O)N(CC(=O)N2CCN(c3ccccc3)CC2)C1=O`, the minimal effective dose in data set [1] was found to be 100 mg/kg; in data set [6], 300 mg/kg. Besides, the outcome in data set [2], in data set [3] and in data set [4] was inactive. In addition, the Activity result in [5] and in data set [7] was “Non-toxic” in each case.
Turning to `CCC1(C)CC(=O)NC1=O` (stereo not given) [ETHOSUXIMIDE], the result in data set [8] and in [3] was inactive. The Activity entry in [5] and in [7] was “Non-toxic” each time. For the same compound, the values for the minimal effective dose in data set [9] and in [10] were 300 mg/kg and 100 mg/kg, respectively.
`CCC1(CC)CC(=O)N(CC(=O)N2CCN(c3ccc(Cl)cc3)CC2)C1=O`: the outcome in [2], in [8] and in data set [4] was inactive. Also, the Activity result in [5] and in data set [7] was “Non-toxic” each time. In data set [11], the minimal effective dose stood at 300 mg/kg.
For `O=C(CN1C(=O)CCC1=O)N1CCN(c2ccc(Cl)cc2)CC1`, the outcome in [12], in data set [2], in data set [13], in data set [14], in [15] and in [17] was inactive. Besides, the result in [18], in [19] and in data set [20] was inactive. In addition, the Activity result in data set [5] was “Non-toxic”. Besides, the minimal effective dose in [11] worked out at 300 mg/kg; in [6] it was 100 mg/kg; in data set [10], 300 mg/kg. Further, the MTC in data set [16] stood at 300 mg/kg.
Turning to `CCC1(CC)CC(=O)N(CC(=O)N2CCN(c3ccccc3)CC2)C1=O`, the result in [2], in [8], in data set [3] and in data set [4] was inactive. For the same compound, the Activity result in [5] and in data set [7] was “Non-toxic” in each case.
As for `CC1CC(=O)N(CC(=O)N2CCN(c3ccccc3)CC2)C1=O` (stereo not given), the outcome in [3] was inactive. Moreover, the MTC in [21] is 300 mg/kg. For the same compound, the minimal effective dose in data set [9], in [6] and in [10] was 300 mg/kg in each case. Also, in [7], the Activity entry was “Non-toxic”.
With `O=C(CN1C(=O)CCC1=O)N1CCN(c2cccc(C(F)(F)F)c2)CC1`, the Activity in data set [22] was 75%; in [23], 75%; in data set [13] it was 75%; in data set [14] (route intraperitoneal), 100%; in data set [15] (route intraperitoneal), 75%; in [18] (route intraperitoneal), 100%. Further, the Activity in [19] (route intraperitoneal) is 100%; in data set [20] (route intraperitoneal) it was 75%. In addition, the outcome in data set [4] and in data set [17] was inactive. In addition, the figures for the MTC in data set [21] and in [16] were 100 mg/kg and 300 mg/kg, respectively. For the same compound, the minimal effective dose in [9] was determined as 300 mg/kg; in [11] it was 100 mg/kg; in data set [6], 100 mg/kg.
